Experiments:
Var-261 cells [1] = assay: 125I-AcLDL degradation and binding plus uptake at 37° C. in Var-261 cells; assay type: cell-based, Chinese hamster; settings: for competition for 125I-AcLDL degradation: 125I-AcLDL 5 μg/ml, 5 hr
[2] = target: T1, murine type II macrophage scavenger receptor (mSR-AII) (Mus musculus, UniProt P30204); assay: 125I-AcLDL degradation at 37° C. in COS cells expressing murine scavenger receptor type II; assay type: cell-based; settings: for competition for 125I-AcLDL degradation: COS[mSR-AII] cells, 125I-AcLDL 5 μg/ml, 5 hr, 37° C.
T1 construct: expressed in transfected cells; host or cells: COS cells (transient)
T1 sequence (P30204 1-354 isoform P30204-2): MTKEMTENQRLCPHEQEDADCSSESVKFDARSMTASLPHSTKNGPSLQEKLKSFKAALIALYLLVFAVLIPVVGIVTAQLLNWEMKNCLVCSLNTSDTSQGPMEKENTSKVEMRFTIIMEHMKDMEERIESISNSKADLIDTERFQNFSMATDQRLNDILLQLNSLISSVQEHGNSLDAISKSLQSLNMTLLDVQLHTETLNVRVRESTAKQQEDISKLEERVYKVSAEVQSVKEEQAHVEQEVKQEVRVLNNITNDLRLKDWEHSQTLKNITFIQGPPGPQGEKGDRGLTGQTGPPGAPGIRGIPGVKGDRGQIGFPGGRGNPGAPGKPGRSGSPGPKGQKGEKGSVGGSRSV
Procedure: Scavenger receptor activities at 37° C. were measured by ligand binding, uptake and degradation assays as described by Krieger, 1983; Freeman et al., 1991). Although binding and uptake at 37° C. were determined separately using dextran-sulfate to free surface bound lipoproteins from the cells as described for LDL receptor assays by Goldstein et al., 1983; Basu et al., 1983 Science 219, 871-873), this method for separating bound from internalized ligand for ^125I-AcLDL and scavenger receptors has not been independently validated. Accordingly, the values for binding and uptake were combined and are presented as binding plus uptake observed after a 5 hour incubation and are expressed as ng of ^125I-AcLDL protein per 5 hr per mg cell protein. Degradation activity is expressed as ng of ^125I-AcLDL protein degraded in 5 hours per mg of cell protein. The specific, high affinity values presented represent the differences between the results obtained in the presence (single determinations) and absence (duplicate determinations) of excess unlabeled competing ligand (75 to 200 μg/ml of M-BSA). Cell surface 4° C. binding was assayed using either method A or method B as indicated. […] The cells were solubilized in 1 ml of 0.1N NaOH for 20 min at room temperature on a shaker, 30 μl were removed for protein determination, and the radioactivity in the remainder was determined using a LKB gamma counter. Method B differed from method A in that the cells were prechilled for 45 minutes, the medium contained 10 mM HEPES and 5% (v/v) human lipoprotein-deficient serum rather than fetal bovine serum, and the cell-associated radioactivity released by treatment with dextran sulfate was measured as described by Krieger, 1983; Freeman et al., 1991).
COS cells were transfected on day 1 with murine scavenger receptor type II. […] On day 3, ^125I-AcLDL (5 μg/ml) in medium B plus 10% fetal bovine serum was added to the cells and degradation was measured after a 5 hr incubation at 37° C. in the absence (duplicate determinations) or presence (duplicate determinations) of the indicated amounts of polyanions. […]

haSR-BI [3] = target: T2, haSR-BI (Cricetulus griseus, UniProt Q60417); assay: 125I-AcLDL binding at 4° C. to haSR-BI in transfected COS or ldlA cells; set-up: species or system hamster; settings: ldlA[haSR-BI] cells, 125I-AcLDL 5 μg/ml, FIG. 3B: M-BSA 10, poly G 500, fucoidin 200, carrageenan 200, LDL 500 μg/ml
T2 construct: expressed in transfected cells
T2 sequence (Q60417 1-509): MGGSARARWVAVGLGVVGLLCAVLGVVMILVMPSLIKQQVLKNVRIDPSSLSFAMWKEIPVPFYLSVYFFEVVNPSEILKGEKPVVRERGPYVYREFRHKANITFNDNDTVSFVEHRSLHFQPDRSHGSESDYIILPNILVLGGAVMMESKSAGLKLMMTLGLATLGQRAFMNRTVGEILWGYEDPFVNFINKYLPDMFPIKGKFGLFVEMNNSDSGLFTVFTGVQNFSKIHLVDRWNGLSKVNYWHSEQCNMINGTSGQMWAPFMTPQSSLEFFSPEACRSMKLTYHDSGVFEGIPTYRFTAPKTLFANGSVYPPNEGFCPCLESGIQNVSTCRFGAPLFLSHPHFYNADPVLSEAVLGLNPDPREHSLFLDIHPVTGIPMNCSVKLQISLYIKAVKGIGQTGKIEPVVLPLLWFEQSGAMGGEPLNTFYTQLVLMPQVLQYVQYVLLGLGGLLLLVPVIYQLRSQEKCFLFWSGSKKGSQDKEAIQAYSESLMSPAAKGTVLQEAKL
Procedure: (§1) Scavenger receptor activities at 37° C. were measured by ligand binding, uptake and degradation assays as described by Krieger, 1983; Freeman et al., 1991). Although binding and uptake at 37° C. were determined separately using dextran-sulfate to free surface bound lipoproteins from the cells as described for LDL receptor assays by Goldstein et al., 1983; Basu et al., 1983 Science 219, 871-873), this method for separating bound from internalized ligand for ^125I-AcLDL and scavenger receptors has not been independently validated. Accordingly, the values for binding and uptake were combined and are presented as binding plus uptake observed after a 5 hour incubation and are expressed as ng of ^125I-AcLDL protein per 5 hr per mg cell protein. Degradation activity is expressed as ng of ^125I-AcLDL protein degraded in 5 hours per mg of cell protein. The specific, high affinity values presented represent the differences between the results obtained in the presence (single determinations) and absence (duplicate determinations) of excess unlabeled competing ligand (75 to 200 μg/ml of M-BSA). Cell surface 4° C. binding was assayed using either method A or method B as indicated. In method A, cells were prechilled on ice for 15 min, re-fed with ^125I-AcLDL in ice-cold medium B supplemented with 10% (v/v) fetal bovine serum, with or without 75-200 μg/ml unlabeled M-BSA, and incubated 2 hr at 4° C. on a shaker. Cells were then washed rapidly three times with Tris wash buffer (50 mM Tris-HCl, 0.15M NaCl, pH 7.4) containing 2 mg/ml BSA, followed by two 5 min washes, and two rapid washes with Tris wash buffer without BSA. The cells were solubilized in 1 ml of 0.1N NaOH for 20 min at room temperature on a shaker, 30 μl were removed for protein determination, and the radioactivity in the remainder was determined using a LKB gamma counter. Method B differed from method A in that the cells were prechilled for 45 minutes, the medium contained 10 mM HEPES and 5% (v/v) human lipoprotein-deficient serum rather than fetal bovine serum, and the cell-associated radioactivity released by treatment with dextran sulfate was measured as described by Krieger, 1983; Freeman et al., 1991).
HDL and VLDL binding to SR-BI and CD36 were conducted as described for LDL and modified LDL.
(§2) To measure binding of AcLDL, on day 1, COS cells were transfected with the expression vector for the hamster scavenger receptor type BI (haSR-BI). On day 2 the transfected COS cells were plated in 6-well dishes (1×10^6 cells/well in medium A plus 1 mM sodium butyrate). […] On day 3 the binding of ^125I-AcLDL (5 μg/ml) at 4° C. in the absence or presence of the indicated competitors was measured using Method A. The values shown in the Figures represent the averages of duplicate determinations. […]

Var-261 cells [4] = assay: 125I-AcLDL binding at 4° C. to Var-261 cells, competition; set-up: species or system Chinese hamster; settings: 125I-AcLDL 5 μg/ml, FIG. 3B: M-BSA 10, poly G 500, fucoidin 200, carrageenan 200, LDL 500 μg/ml
Procedure: as §1, §2

CD36 = target: T3, CD36 (Homo sapiens, UniProt P16671); assay: 125I-AcLDL degradation at 37° C. in COS cells transfected with CD36, competition; assay type: cell-based; settings: 5 hr, FIG. 4B: M-BSA 4, AcLDL 500, fucoidin 200, poly I 500, poly G 500, ReLPS 250 μg/ml
T3 construct: expressed in transfected cells; host or cells: COS cells (transient)
Procedure: as §1
COS cells were transfected on day 1 with a plasmid encoding CD36. On day 2 the transfected cells were set in 6-well dishes at 1×10^6 cells/well in medium A plus 1 mM sodium butyrate. On day 3, 125I-AcLDL binding at 4° C. was measured. […] On day 3, degradation of ^125I-AcLDL (5 μg/ml) was measured after a 5 hr incubation at 37° C. in the absence (duplicate determinations) or presence (duplicate determinations) of the indicated competitors. […]

haSR-BI [5] = target: T2, haSR-BI; assay: [3H]-liposome binding at 4° C. to haSR-BI in ldlA[haSR-BI] cells; set-up: species or system hamster; settings: EDTA 1-10 mM
Procedure: Unilamellar liposomes were made by extrusion through policarbonate membranes (Szoka et al., 1980). Phospholipid liposomes were prepared containing the indicated phospholipid, phosphatidycholine, and free cholesterol in a molar ratio of 1:1:1. The lipids were mixed in chloroform and dried by rotary evaporation for 30 min. For preparation of radiolabeled liposomes, 50-75 μCi of [^3H]DPPC(62 Ci/mmol) were added to the lipid mixtures before drying. The dried lipids were resuspended in 150 mM NaCl, 0.1 mM EDTA, 10 mM HEPES, pH 7.5 (Buffer A). […] The final phospholipid concentration was determined by the method of Bartlett (1959). The average diameters of unlabeled liposomes, which were determined from either two or three independent preparations using light scattering with a Coulter N4 plus light scatterer apparatus (Coulter Electronics Inc., Hialeah, Fla.), were: PS, 105; PC, 114: PA, 125; PE, 129; P1, 113; and SM, 131 nm. The number of phospholipid molecules/PS liposome was calculated as follows. […]
Ligand Binding Assays. […] The cells were then solubilized with […], and radioactivity and protein determinations were made as described above. […] The binding values are expressed as nanograms of bound ^125I-labeled protein or ng of total phospholipids from ^3H-labeled liposomes/milligram of cell protein. […]

dSR-CI = assay: Competitive inhibition of 125I-AcLDL degradation activity by CHO[dSR-CI]-2.6a cells; assay type: cell-based, Drosophila melanogaster
Procedure: as §1
Competitive binding of AcLDL was performed to more accurately define the specificity of the AcLDL binding.

T3 sequence (P16671 whole entry): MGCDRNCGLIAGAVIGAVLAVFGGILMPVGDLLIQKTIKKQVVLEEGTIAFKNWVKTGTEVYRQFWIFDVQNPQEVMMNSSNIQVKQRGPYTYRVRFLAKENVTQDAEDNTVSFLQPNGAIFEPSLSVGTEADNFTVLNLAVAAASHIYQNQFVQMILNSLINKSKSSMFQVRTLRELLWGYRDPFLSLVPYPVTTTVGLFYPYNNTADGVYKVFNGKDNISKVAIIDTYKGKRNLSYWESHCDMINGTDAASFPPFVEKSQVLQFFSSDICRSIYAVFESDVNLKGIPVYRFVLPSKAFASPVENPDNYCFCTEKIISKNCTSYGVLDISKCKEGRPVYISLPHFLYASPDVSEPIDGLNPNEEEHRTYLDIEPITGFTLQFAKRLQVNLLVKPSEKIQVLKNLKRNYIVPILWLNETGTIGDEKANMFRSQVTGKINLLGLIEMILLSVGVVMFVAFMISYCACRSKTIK

Compound | competition for 125I-AcLDL degradation (Var-261 cells [1]; 37° C.) | inhibition of 125I-AcLDL binding (haSR-BI [3]) | inhibition of 125I-AcLDL binding (Var-261 cells [4]) | inhibition of receptor activity, 125I-AcLDL degradation (CD36) | Degradation (% No Competitor) (dSR-CI; competitor 400 μg/ml) | also measured
Polyriboguanylic acid [poly G] | effective competitors | not inhibited | competitors | not |  | competition for 125I-AcLDL degradation [2]: effective competitors
CCN(CC)CCCC(C)Nc1ccnc2cc(Cl)ccc12 (stereo not drawn) [chloroquine] |  |  |  |  |  | effect on 125I-AcLDL binding plus uptake (Var-261 cells [1]; 37° C.): not; effect on 125I-AcLDL degradation (Var-261 cells [1]; 37° C.): inhibited
O=C(O)CN(CCN(CC(=O)O)CC(=O)O)CC(=O)O [EDTA] |  |  |  |  |  | effect on PS liposome binding (haSR-BI [5]): not inhibited
fucoidin | effective competitors | not inhibited | competitors | not |  | competition for 125I-AcLDL degradation [2]: effective competitors
carrageenan |  | not inhibited | competitors |  |  | 
polyriboinosinic acid [poly I] |  |  |  | not | 2.7 | inhibition of 125I-AcLDL degradation (Var-261 cells [1]; competitor at 400 μg/ml): 34%; inhibition of 125I-AcLDL degradation ([2]; class A scavenger receptors, competitor at 2.5 μg/ml): greater than 50%
dextran sulfate |  |  |  |  |  | Degradation (% No Competitor) (dSR-CI; competitor concentration not given): 4.2 % No Competitor
Poly D-glutamic acid |  |  |  |  | 34 | 
M-BSA: maleylated BSA | inhibited | inhibited | inhibited | inhibited | 6.7 | 
Dextran |  |  |  |  | 100 | 
